From patent US10448639B2, “Fungicidal pyrazoles” (FMC CORPORATION, priority 2009, dated 2019)
Marks after values point to notes of the source that are not given here.

Assays:
[1] = tested on: Puccinia recondita f. sp. tritici; test: Test I: wheat leaf rust, preventive spray on wheat seedlings, visual disease rating; settings: wheat leaf rust, preventive spray; for Test I rating (% disease control): 100 = 100% disease control, 0 = no control
[2] = tested on: Botrytis cinerea; test: Test B: tomato Botrytis, preventive spray on tomato seedlings, visual disease rating; settings: tomato Botrytis, preventive spray; for Test B rating (% disease control): 100 = 100% disease control, 0 = no control
[3] = tested on: Septoria tritici; test: Test G: wheat leaf blotch, preventive spray on wheat seedlings, visual disease rating; settings: wheat leaf blotch, preventive spray; for Test G rating (% disease control): 100 = 100% disease control, 0 = no control
[4] = tested on: Alternaria solani; test: Test C: tomato early blight, preventive spray on tomato seedlings, visual disease rating; settings: tomato early blight, preventive spray; for Test C rating (% disease control): 100 = 100% disease control, 0 = no control
[5] = tested on: Erysiphe graminis f sp. tritici; test: Test J: wheat powdery mildew, preventive spray on wheat seedlings, visual disease rating; settings: wheat powdery mildew, preventive spray; for Test J rating (% disease control): 100 = 100% disease control, 0 = no control
[6] = tested on: Septoria nodorum; test: Test F: Septoria glume blotch, preventive spray on wheat seedlings, visual disease rating; settings: preventive spray; for Test F rating (% disease control): Septoria glume blotch on wheat, 100 = 100% disease control, 0 = no control
[7] = tested on: Puccinia recondita f. sp. tritici; test: Test H: wheat leaf rust, curative spray on inoculated wheat seedlings, visual disease rating; settings: wheat leaf rust, curative spray; for Test H rating (% disease control): 100 = 100% disease control, 0 = no control
Text: General protocol for preparing test suspensions for Tests A-J: the test compounds were first dissolved in acetone in an amount equal to 3% of the final volume and then suspended at the desired concentration (in ppm) in acetone and purified water (50/50 mix by volume) containing 250 ppm of the surfactant Trem® 014 (polyhydric alcohol esters). The resulting test suspensions were then used in Tests A-J. Spraying a 200 ppm test suspension to the point of run-off on the test plants was the equivalent of a rate of 500 g/ha. Unless otherwise indicated, the rating values indicate a 200 ppm test suspension was used. (An asterisk “*” next to the rating value indicates a 40 ppm test suspension was used.)
Wheat seedlings were inoculated with a spore suspension of Puccinia recondita f. sp. tritici (the causal agent of wheat leaf rust) and incubated in a saturated atmosphere at 20° C. for 24 h, and then moved to a growth chamber at 20° C. for 2 days. At the end of this time the test suspension was sprayed to the point of run-off, and then the seedlings were moved to a growth chamber at 20° C. for 6 days after which time visual disease ratings were made.

[8] = rating marked with asterisk (different test condition, key not given)

| SMILES | Test I rating (% disease control) [1] [%] | Test B rating (% disease control) [2] [%] | Test G rating (% disease control) [3] [%] | Test C rating (% disease control) [4] [%] | Test J rating (% disease control) [5] [%] | Test F rating (% disease control) [6] [%] | Test H rating (% disease control) [7] [%] | Test I rating (% disease control), value marked * [1, 8] | Test B rating (% disease control), value marked * [2, 8] | Test G rating (% disease control), value marked * [3, 8] | Test C rating (% disease control), value marked * [4, 8] | Test J rating (% disease control), value marked * [5, 8] | Test F rating (% disease control), value marked * ([6]; Septoria glume blotch, rating marked with asterisk (different test condition, key not given)) | Test H rating (% disease control), value marked * [7, 8] |
| --- | --- | --- | --- | --- | --- | --- | --- | --- | --- | --- | --- | --- | --- | --- |
| Cc1nn(C)c(Nc2ncc(Cl)cc2Cl)c1-c1c(F)cc(F)cc1F [compound 101] | 99 | 100 | 100 | 99 | 100 | 100 | 99 |  |  |  |  |  |  |  |
| COc1cc(F)c(-c2c(C)nn(C)c2Nc2ncc(Cl)cc2Cl)c(F)c1 [compound 102] | 100 | 100 | 99 | 100 | 98 | 98 | 0 |  |  |  |  |  |  |  |
| Cc1nn(C)c(Nc2ccc(F)cc2F)c1-c1c(F)cc(O)cc1F [compound 103] | 91 | 100 | 95 | 64 | 0 | 0 | 0 |  |  |  |  |  |  |  |
| COc1ccc(-c2c(C)nn(C)c2Nc2c(F)cc(F)cc2F)c(Cl)c1 [compound 104] | 99 | 100 | 99 | 99 | 100 | 97 | 99 |  |  |  |  |  |  |  |
| Cc1nn(C)c(Nc2ccc(F)cc2F)c1-c1c(F)cc(OS(=O)(=O)C(F)(F)F)cc1F [compound 105] | 0 | 23 | 73 | 0 | 72 | 0 | 9 |  |  |  |  |  |  |  |
| Cc1nn(C)c(Nc2ccc(F)cc2F)c1-c1c(F)cc(C#N)cc1F [compound 106] | 99 | 100 | 100 | 99 | 100 | 90 | 82 |  |  |  |  |  |  |  |
| Cc1nn(C)c(Nc2ccc(Cl)nc2Cl)c1-c1ccc(F)cc1Cl [compound 107] |  |  |  |  |  |  |  | 24* % | 99* % | 99* % | 0* % | 0* % | 0* % | 8* % |
| Cn1nc(C2CC2)c(-c2ccc(F)cc2Cl)c1Nc1ccc(F)cc1F [compound 108] | 16 | 97 | 98 | 0 | 97 | 0 | 0 |  |  |  |  |  |  |  |
| Cc1nn(C)c(Nc2ncc(F)cc2F)c1-c1c(F)cc(F)cc1F [compound 109] | 100 | 100 | 100 | 99 | 100 | 97 | 99 |  |  |  |  |  |  |  |
| Cc1nn(C)c(Nc2ccc(Cl)cc2)c1-c1c(F)cc(C#N)cc1F [compound 110] | 97 | 99 | 99 | 66 | 94 | 98 | 0 |  |  |  |  |  |  |  |
| Cc1nn(C)c(Nc2ccc(F)cc2)c1-c1c(F)cc(C#N)cc1F [compound 111] | 97 | 99 | 99 | 75 | 99 | 90 | 0 |  |  |  |  |  |  |  |
| Cc1nn(C)c(Nc2ccc(F)cc2Cl)c1-c1c(F)cc(C#N)cc1F [compound 112] | 100 | 100 | 99 | 98 | 100 | 99 | 53 |  |  |  |  |  |  |  |
| COc1ccc(Nc2c(-c3c(F)cc(C#N)cc3F)c(C)nn2C)cc1F [compound 113] | 95 | 99 | 100 | 47 | 48 | 0 | 8 |  |  |  |  |  |  |  |
| Cc1nn(C)c(Nc2ccc(F)c(F)c2)c1-c1c(F)cc(C#N)cc1F [compound 114] | 99 | 99 | 99 | 24 | 84 | 69 | 8 |  |  |  |  |  |  |  |
| Cc1nn(C)c(Nc2cccc(Cl)c2)c1-c1c(F)cc(C#N)cc1F [compound 115] | 91 | 99 | 100 | 0 | 0 | 0 | 0 |  |  |  |  |  |  |  |
| Cc1nn(C)c(Oc2cc(F)cc(C#N)c2)c1-c1ccc(F)cc1Cl [compound 116] | 97 | 100 | 100 | 94 | 99 | 73 | 16 |  |  |  |  |  |  |  |
| COc1cc(F)c(-c2c(C)nn(C)c2Nc2ccc(C#N)cc2Cl)c(F)c1 [compound 117] | 98 | 99 | 100 | 97 | 97 | 82 | 11 |  |  |  |  |  |  |  |
| Cc1nn(C)c(Oc2ccc([N+](=O)[O-])cc2Cl)c1-c1ccc(F)cc1Cl [compound 119] | 99 | 100 | 100 | 0 | 96 | 0 | 16 |  |  |  |  |  |  |  |
| Cc1nn(C)c(Nc2ccc(C#N)cc2F)c1-c1c(F)cc(F)cc1F [compound 120] | 99 | 100 | 100 | 99 | 99 | 94 | 0 |  |  |  |  |  |  |  |
